Test results reported in article PMC4454357 (Archives of biochemistry and biophysics, 2015).
Like-named read-outs stand apart in the source and are kept apart here. One block for each compound: values may come before it.

Columns and labels:
AhR [1] = target: T1, AhR (Rattus norvegicus, UniProt P41738); test: AhR-dependent luciferase reporter gene assay, rat hepatoma H4L7.5c2
T1 sequence (P41738 10-853): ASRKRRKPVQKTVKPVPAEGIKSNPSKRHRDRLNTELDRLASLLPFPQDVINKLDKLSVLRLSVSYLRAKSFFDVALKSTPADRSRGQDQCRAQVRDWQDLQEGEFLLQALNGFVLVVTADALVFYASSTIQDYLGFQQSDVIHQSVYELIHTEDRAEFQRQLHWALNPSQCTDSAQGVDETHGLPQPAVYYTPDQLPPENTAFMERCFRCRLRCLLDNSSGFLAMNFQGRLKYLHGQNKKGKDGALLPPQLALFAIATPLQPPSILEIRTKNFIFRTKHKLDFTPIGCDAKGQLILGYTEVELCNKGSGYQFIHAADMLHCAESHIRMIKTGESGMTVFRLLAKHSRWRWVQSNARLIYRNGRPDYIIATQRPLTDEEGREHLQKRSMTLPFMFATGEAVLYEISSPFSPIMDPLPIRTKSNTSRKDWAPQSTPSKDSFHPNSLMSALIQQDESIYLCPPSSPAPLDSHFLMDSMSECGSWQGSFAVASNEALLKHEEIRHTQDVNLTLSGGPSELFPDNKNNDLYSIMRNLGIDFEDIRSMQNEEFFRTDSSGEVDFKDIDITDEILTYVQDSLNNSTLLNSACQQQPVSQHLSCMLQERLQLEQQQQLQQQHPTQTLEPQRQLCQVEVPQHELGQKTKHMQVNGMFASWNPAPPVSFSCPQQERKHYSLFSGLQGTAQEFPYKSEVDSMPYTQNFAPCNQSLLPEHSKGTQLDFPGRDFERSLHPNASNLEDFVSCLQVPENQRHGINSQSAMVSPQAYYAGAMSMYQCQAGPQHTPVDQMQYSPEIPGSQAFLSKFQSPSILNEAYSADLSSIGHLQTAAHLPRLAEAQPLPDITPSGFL

AhR [2] = target: T2, AhR (Cavia porcellus, UniProt Q6J287)
T2 sequence (Q6J287 1-846): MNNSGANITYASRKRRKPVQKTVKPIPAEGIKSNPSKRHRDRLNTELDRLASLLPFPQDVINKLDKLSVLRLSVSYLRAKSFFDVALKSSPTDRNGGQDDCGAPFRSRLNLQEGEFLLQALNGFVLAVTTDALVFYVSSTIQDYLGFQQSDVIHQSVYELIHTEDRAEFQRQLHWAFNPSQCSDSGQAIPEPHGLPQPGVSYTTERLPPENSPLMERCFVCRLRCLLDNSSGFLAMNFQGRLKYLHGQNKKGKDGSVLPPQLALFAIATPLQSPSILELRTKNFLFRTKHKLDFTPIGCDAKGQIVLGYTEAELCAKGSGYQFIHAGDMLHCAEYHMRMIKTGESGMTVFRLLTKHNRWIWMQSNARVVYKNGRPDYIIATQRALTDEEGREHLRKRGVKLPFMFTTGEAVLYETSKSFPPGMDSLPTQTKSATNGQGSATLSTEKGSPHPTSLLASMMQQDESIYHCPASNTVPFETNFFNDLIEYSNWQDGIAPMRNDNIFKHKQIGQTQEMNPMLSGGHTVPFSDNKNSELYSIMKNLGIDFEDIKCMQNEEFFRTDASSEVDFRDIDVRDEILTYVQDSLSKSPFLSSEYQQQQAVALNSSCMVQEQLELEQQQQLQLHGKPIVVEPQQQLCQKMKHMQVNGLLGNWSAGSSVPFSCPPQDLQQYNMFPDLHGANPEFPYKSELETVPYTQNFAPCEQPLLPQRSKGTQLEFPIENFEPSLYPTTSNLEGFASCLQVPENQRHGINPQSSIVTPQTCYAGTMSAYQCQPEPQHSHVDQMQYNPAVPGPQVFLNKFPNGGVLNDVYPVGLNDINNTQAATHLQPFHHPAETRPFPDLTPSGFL

AhR [3] = target: T3, AhR (Homo sapiens, UniProt P35869)
T3 sequence (P35869 11-848): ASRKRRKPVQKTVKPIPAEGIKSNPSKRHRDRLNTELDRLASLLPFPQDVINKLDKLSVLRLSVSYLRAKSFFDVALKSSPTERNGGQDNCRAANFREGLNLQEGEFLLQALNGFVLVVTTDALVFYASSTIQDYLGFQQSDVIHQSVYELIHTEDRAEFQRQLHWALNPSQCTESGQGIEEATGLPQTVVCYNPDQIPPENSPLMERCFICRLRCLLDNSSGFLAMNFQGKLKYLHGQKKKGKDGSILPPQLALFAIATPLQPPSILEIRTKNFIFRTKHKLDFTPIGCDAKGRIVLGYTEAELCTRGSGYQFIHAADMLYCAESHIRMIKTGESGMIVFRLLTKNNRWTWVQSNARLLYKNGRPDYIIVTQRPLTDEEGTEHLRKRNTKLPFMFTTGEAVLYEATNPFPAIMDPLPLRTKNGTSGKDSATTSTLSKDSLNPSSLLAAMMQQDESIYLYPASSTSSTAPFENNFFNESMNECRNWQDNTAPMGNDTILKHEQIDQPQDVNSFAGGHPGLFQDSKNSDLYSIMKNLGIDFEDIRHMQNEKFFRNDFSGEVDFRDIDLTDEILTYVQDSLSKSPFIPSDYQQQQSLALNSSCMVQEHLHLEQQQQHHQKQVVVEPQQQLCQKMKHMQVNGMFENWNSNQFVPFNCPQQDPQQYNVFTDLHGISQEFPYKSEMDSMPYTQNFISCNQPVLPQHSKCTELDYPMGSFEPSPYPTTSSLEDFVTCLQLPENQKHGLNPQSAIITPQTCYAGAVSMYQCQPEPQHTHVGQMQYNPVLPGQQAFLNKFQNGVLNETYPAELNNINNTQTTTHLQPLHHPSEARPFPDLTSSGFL

AhR [4] = target: T1, AhR
AhR [5] = target: T2, AhR; remark: listed apart in the source
AhR [6] = target: T3, AhR; test: AhR-dependent luciferase reporter gene assay, human hepatoma HG2L7.5c1; conditions: for difference in relative potency among the cell lines studied: human, mouse, rat and guinea pig cell lines compared
AhR [7] = target: AhR (Mus musculus, UniProt P30561); test: AhR-dependent luciferase reporter gene assay, mouse hepatoma H1L7.5c3; conditions: mouse cell line
Sequence of AhR (Mus musculus, UniProt P30561) (P30561 10-848): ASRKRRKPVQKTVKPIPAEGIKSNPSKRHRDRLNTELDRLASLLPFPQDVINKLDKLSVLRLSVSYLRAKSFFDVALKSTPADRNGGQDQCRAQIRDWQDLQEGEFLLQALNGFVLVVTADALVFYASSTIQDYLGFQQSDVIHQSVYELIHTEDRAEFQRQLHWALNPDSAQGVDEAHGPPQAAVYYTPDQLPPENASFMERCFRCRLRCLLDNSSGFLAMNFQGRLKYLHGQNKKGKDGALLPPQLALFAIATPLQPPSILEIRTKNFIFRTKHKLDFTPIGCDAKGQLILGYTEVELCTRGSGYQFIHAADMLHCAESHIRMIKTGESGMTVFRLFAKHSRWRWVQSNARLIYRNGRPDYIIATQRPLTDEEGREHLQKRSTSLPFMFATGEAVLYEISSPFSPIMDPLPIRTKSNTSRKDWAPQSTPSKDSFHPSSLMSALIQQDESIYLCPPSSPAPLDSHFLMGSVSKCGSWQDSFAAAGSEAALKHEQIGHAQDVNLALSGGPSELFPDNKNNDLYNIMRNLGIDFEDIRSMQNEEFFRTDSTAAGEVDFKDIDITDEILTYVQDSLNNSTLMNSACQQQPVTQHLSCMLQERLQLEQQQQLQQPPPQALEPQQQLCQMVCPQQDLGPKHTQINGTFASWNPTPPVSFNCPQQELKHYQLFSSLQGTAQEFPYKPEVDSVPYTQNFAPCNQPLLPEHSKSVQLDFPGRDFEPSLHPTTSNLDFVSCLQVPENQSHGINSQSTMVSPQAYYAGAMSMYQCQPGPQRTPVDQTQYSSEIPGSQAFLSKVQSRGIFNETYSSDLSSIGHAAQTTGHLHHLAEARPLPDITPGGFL

AhR [8] = test: as above; conditions: EC50 mouse versus rat cell lines
[9] = target: T4, guinea pig hepatic cytosolic AhR (Cavia porcellus, UniProt Q6J287); test: [3H]TCDD competitive ligand binding, hydroxyapatite binding assay; conditions: 2 nM [3H]TCDD, 1 h, room temperature, guinea pig hepatic cytosol
T4 sequence (Q6J287 1-846): T2 sequence (Q6J287 1-846)

[10] = read-out: Relative potency (EC50) as activators of AhR-dependent reporter gene expression, Human cell line HG2L7.5c1, 6 h, mean of triplicate concentration response analysis

Compound: O=C(c1c[nH]c2ccccc12)c1nccc2c1[nH]c1ccccc12 [Pityriacitrin, pityriacitrin]
EC50 (AhR [3]): 4.9 nM
EC50 (AhR [4]): 4.3 nM
EC50 (AhR [5]): 4.3 nM
difference in relative potency among the cell lines studied (AhR [6]): lowest degree of difference

Compound: Clc1cc2c(cc1Cl)Oc1cc(Cl)c(Cl)cc1O2 [TCDD, 2,3,7,8-tetrachlorodibenzo-p-dioxin, reference compound]
EC50 (AhR [1]): 0.1 nM
EC50 (AhR [6]): 0.53 nM
EC50 (AhR [2]): 0.1 nM

Compound: O=C1c2ccccc2-n2c1nc1ccccc1c2=O [Tryptanthrin, tryptanthrin]
EC50 (AhR [1]): 946 nM
EC50 (AhR [2]): 181 nM

Compound: indolo[3,2-b]carbazole [ICZ]
EC50 (AhR [7]): 0.009 nM
difference in EC50 between the mouse and rat cell lines (AhR [8]): ~ 109 fold
EC50 (AhR [6]; [10]): 0.6 nM

Compound: pityriazepin
displacement of [3H]TCDD [9]: displaced [^3H]TCDD from guinea pig hepatic cytosol in a concentration-dependent manner
difference in relative potency among the cell lines studied (AhR [6]): lowest degree of difference
EC50 (AhR [6]; [10]): 5 nM

Results, then the compound that gave them:

EC50 (AhR [1]): 0.078 nM
Compound: O=Cc1c2[nH]c3ccccc3c2cc2[nH]c3ccccc3c12 [FICZ, 6-formyl-indolo[3,2-b]carbazole]

EC50 (AhR [1]): 0.94 nM
EC50 (AhR [2]): 0.95 nM
Compound: O=C1Nc2ccccc2/C1=C1/Nc2ccccc2C1=O [Indirubin, indirubin]

EC50 (AhR [3]): 11.1 nM
EC50 (AhR [4]): 56 nM
EC50 (AhR [5]): 276 nM
relative inducing potency difference between the human and mouse cell lines (AhR [6]; EC50 human versus mouse hepatoma cells): ~ 26 fold
Compound: O=Cc1c(Cc2c[nH]c3ccccc23)[nH]c2ccccc12 [Malassezin, malassezin]
